# PubChem BioAssay AID1963868 (Molecular Pharmacology Branch, DTP, NCI, 2024)
# System: KRAS PDC tumor spheroids (HUVEC+MSC), viability
# Assay: Anticancer human tumor 254851-301-R-J1-PDC patient-derived colon carcinoma cell line growth inhibition [KRAS2]
# Settings: for IC50: curve of first compound; for viability, T/C: stronger effect = lower value
# Outline: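 Combination screen of spheroid viability in tumor-cell co-cultures with endothelial (HUVEC) and mesenchymal stem cell stroma. Each agent was tested in half-log dilutions, topping at clinical Cmax or at 10 microM without a known Cmax.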
# [1] = second compound 0.1 µM, first compound 0.0316 µM
# [2] = second compound 0.1 µM, first compound 0.1 µM
# [3] = second compound 0.1 µM, first compound 0.316 µM
# [4] = second compound 0.1 µM, first compound 1 µM
# [5] = second compound 0.1 µM, first compound 3.16 µM
# [6] = second compound 0.1 µM, first compound 10 µM
# [7] = second compound 0.316 µM, first compound 0.0316 µM
# [8] = second compound 0.316 µM, first compound 0.1 µM
# [9] = second compound 0.316 µM, first compound 0.316 µM
# [10] = second compound 0.316 µM, first compound 1 µM
# [11] = second compound 0.316 µM, first compound 3.16 µM
# [12] = second compound 0.316 µM, first compound 10 µM
# [13] = second compound 1 µM, first compound 0.0316 µM
# [14] = second compound 1 µM, first compound 0.1 µM
# [15] = second compound 1 µM, first compound 0.316 µM
# [16] = second compound 1 µM, first compound 1 µM
# [17] = second compound 1 µM, first compound 3.16 µM
# [18] = second compound 1 µM, first compound 10 µM
# [19] = second compound 3.16 µM, first compound 0.0316 µM
# [20] = second compound 3.16 µM, first compound 0.1 µM
# [21] = second compound 3.16 µM, first compound 0.316 µM
# [22] = second compound 3.16 µM, first compound 1 µM
# [23] = second compound 3.16 µM, first compound 3.16 µM
# [24] = second compound 3.16 µM, first compound 10 µM
# [25] = second compound 10 µM, first compound 0.0316 µM
# [26] = second compound 10 µM, first compound 0.1 µM
# [27] = second compound 10 µM, first compound 0.316 µM
# [28] = second compound 10 µM, first compound 1 µM
# [29] = second compound 10 µM, first compound 3.16 µM
# [30] = second compound 10 µM, first compound 10 µM
# [31] = second compound 0.0316 µM, first compound 0.01 µM
# [32] = second compound 0.0316 µM, first compound 0.0316 µM
# [33] = second compound 0.0316 µM, first compound 0.1 µM
# [34] = second compound 0.1 µM, first compound 0.01 µM
# [35] = second compound 0.316 µM, first compound 0.01 µM
# [36] = second compound 1 µM, first compound 0.01 µM
# [37] = second compound 3.16 µM, first compound 0.01 µM
# 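Also: spheroids exposed to compounds for seven days before readout.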
# 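For viability, T/C in this document: 100% = DMSO vehicle control luminescence of the spheroids.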
smiles,measurement,setting,value
CC1OCC2(CCN(c3cnc(Sc4ccnc(N)c4Cl)c(N)n3)CC2)C1N (stereo not given) + C=CC(=O)N1CCN(c2nc(=O)n(-c3c(C)ccnc3C(C)C)c3nc(-c4c(O)cccc4F)c(F)cc23)C(C)C1,IC50,second compound 0.1 µM,> 10000 nM
same,IC50,second compound 0.316 µM,> 10000 nM
same,IC50,second compound 1 µM,> 10000 nM
same,IC50,second compound 3.16 µM,> 10000 nM
same,IC50,second compound 10 µM,> 10000 nM
same,"viability, T/C",[1],95%
same,"viability, T/C",[2],91%
same,"viability, T/C",[3],81.6%
same,"viability, T/C",[4],60.2%
same,"viability, T/C",[5],67.2%
same,"viability, T/C",[6],61.9%
same,"viability, T/C",[7],78%
same,"viability, T/C",[8],99.2%
same,"viability, T/C",[9],75.4%
same,"viability, T/C",[10],71.4%
same,"viability, T/C",[11],60.5%
same,"viability, T/C",[12],68.7%
same,"viability, T/C",[13],94.6%
same,"viability, T/C",[14],84.7%
same,"viability, T/C",[15],76.3%
same,"viability, T/C",[16],74.1%
same,"viability, T/C",[17],67.8%
same,"viability, T/C",[18],67.5%
same,"viability, T/C",[19],92.6%
same,"viability, T/C",[20],71.1%
same,"viability, T/C",[21],81.5%
same,"viability, T/C",[22],63.9%
same,"viability, T/C",[23],72.2%
same,"viability, T/C",[24],65.6%
same,"viability, T/C",[25],80.7%
same,"viability, T/C",[26],70.8%
same,"viability, T/C",[27],58.9%
same,"viability, T/C",[28],55.6%
same,"viability, T/C",[29],56%
same,"viability, T/C",[30],66.3%
Cn1nccc1Nc1nccc(-c2cc3c(s2)C(C)(C)N(CCN2CCOCC2)C3=O)n1 + C=CC(=O)N1CCN(c2nc(=O)n(-c3c(C)ccnc3C(C)C)c3nc(-c4c(O)cccc4F)c(F)cc23)C(C)C1,IC50,second compound 0.1 µM,2760 nM
same,IC50,second compound 0.316 µM,3750 nM
same,IC50,second compound 1 µM,2570 nM
same,IC50,second compound 3.16 µM,1910 nM
same,IC50,second compound 10 µM,3100 nM
same,"viability, T/C",[1],87.5%
same,"viability, T/C",[2],94.5%
same,"viability, T/C",[3],94.5%
same,"viability, T/C",[4],96.8%
same,"viability, T/C",[5],44.1%
same,"viability, T/C",[6],4.13%
same,"viability, T/C",[7],102%
same,"viability, T/C",[8],92.2%
same,"viability, T/C",[9],102%
same,"viability, T/C",[10],88%
same,"viability, T/C",[11],58.2%
same,"viability, T/C",[12],4.04%
same,"viability, T/C",[13],95.5%
same,"viability, T/C",[14],91.2%
same,"viability, T/C",[15],91.9%
same,"viability, T/C",[16],79.5%
same,"viability, T/C",[17],43.5%
same,"viability, T/C",[18],5.08%
same,"viability, T/C",[19],73.7%
same,"viability, T/C",[20],82.7%
same,"viability, T/C",[21],78.6%
same,"viability, T/C",[22],77.6%
same,"viability, T/C",[23],28.6%
same,"viability, T/C",[24],3.74%
same,"viability, T/C",[25],97.1%
same,"viability, T/C",[26],97.1%
same,"viability, T/C",[27],79.7%
same,"viability, T/C",[28],74.9%
same,"viability, T/C",[29],51.5%
same,"viability, T/C",[30],4.35%
CC(=O)OC12COC1CC(O)C1(C)C(=O)C(O)C3=C(C)C(OC(=O)C(O)C(NC(=O)OC(C)(C)C)c4ccccc4)CC(O)(C(OC(=O)c4ccccc4)C21)C3(C)C (stereo not given) + C=CC(=O)N1CCN(c2nc(OCC3CCCN3C)nc3c2CCN(c2cccc4cccc(C)c24)C3)CC1CC#N,IC50,second compound 0.0316 µM,206 nM
same,IC50,second compound 0.1 µM,198 nM
same,IC50,second compound 0.316 µM,163 nM
same,IC50,second compound 1 µM,140 nM
same,IC50,second compound 3.16 µM,203 nM
same,"viability, T/C",[31],102%
same,"viability, T/C",[32],95.9%
same,"viability, T/C",[33],69.3%
same,"viability, T/C","second compound 0.0316 µM, first compound 0.316 µM",38.4%
same,"viability, T/C","second compound 0.0316 µM, first compound 1 µM",29%
same,"viability, T/C","second compound 0.0316 µM, first compound 3.16 µM",26.1%
same,"viability, T/C",[34],99.1%
same,"viability, T/C",[1],91.2%
same,"viability, T/C",[2],61.4%
same,"viability, T/C",[3],43%
same,"viability, T/C",[4],27.3%
same,"viability, T/C",[5],25.6%
same,"viability, T/C",[35],98.1%
same,"viability, T/C",[7],88%
same,"viability, T/C",[8],60.8%
same,"viability, T/C",[9],35.4%
same,"viability, T/C",[10],26.5%
same,"viability, T/C",[11],24.3%
same,"viability, T/C",[36],93%
same,"viability, T/C",[13],94.5%
same,"viability, T/C",[14],56.2%
same,"viability, T/C",[15],34%
same,"viability, T/C",[16],24.4%
same,"viability, T/C",[17],22.9%
same,"viability, T/C",[37],94.3%
same,"viability, T/C",[19],86.7%
same,"viability, T/C",[20],69.1%
same,"viability, T/C",[21],38.5%
same,"viability, T/C",[22],24.2%
same,"viability, T/C",[23],23.7%
CN(C)C/C=C/C(=O)Nc1cc2c(Nc3ccc(F)c(Cl)c3)ncnc2cc1O[C@H]1CCOC1 + C=CC(=O)N1CCN(c2nc(OCC3CCCN3C)nc3c2CCN(c2cccc4cccc(C)c24)C3)CC1CC#N,IC50,second compound 0.0316 µM,> 100 nM
same,IC50,second compound 0.1 µM,> 100 nM
same,IC50,second compound 0.316 µM,> 100 nM
same,IC50,second compound 1 µM,> 100 nM
same,IC50,second compound 3.16 µM,> 100 nM
same,"viability, T/C","second compound 0.0316 µM, first compound 0.000316 µM",97.2%
same,"viability, T/C","second compound 0.0316 µM, first compound 0.001 µM",99.7%
same,"viability, T/C","second compound 0.0316 µM, first compound 0.00316 µM",94.7%
same,"viability, T/C",[31],96.7%
same,"viability, T/C",[32],97.9%
same,"viability, T/C",[33],78.7%
same,"viability, T/C","second compound 0.1 µM, first compound 0.000316 µM",105%
same,"viability, T/C","second compound 0.1 µM, first compound 0.001 µM",101%
same,"viability, T/C","second compound 0.1 µM, first compound 0.00316 µM",88.5%
same,"viability, T/C",[34],92.6%
same,"viability, T/C",[1],97.7%
same,"viability, T/C",[2],69.7%
same,"viability, T/C","second compound 0.316 µM, first compound 0.000316 µM",101%
same,"viability, T/C","second compound 0.316 µM, first compound 0.001 µM",97.8%
same,"viability, T/C","second compound 0.316 µM, first compound 0.00316 µM",92.6%
same,"viability, T/C",[35],75%
same,"viability, T/C",[7],89.3%
same,"viability, T/C",[8],74.5%
same,"viability, T/C","second compound 1 µM, first compound 0.000316 µM",104%
same,"viability, T/C","second compound 1 µM, first compound 0.001 µM",97.9%
same,"viability, T/C","second compound 1 µM, first compound 0.00316 µM",91.4%
same,"viability, T/C",[36],95.9%
same,"viability, T/C",[13],96.7%
same,"viability, T/C",[14],82.3%
same,"viability, T/C","second compound 3.16 µM, first compound 0.000316 µM",67.5%
same,"viability, T/C","second compound 3.16 µM, first compound 0.001 µM",61.5%
same,"viability, T/C","second compound 3.16 µM, first compound 0.00316 µM",51.8%
same,"viability, T/C",[37],54.6%
same,"viability, T/C",[19],62.6%
same,"viability, T/C",[20],52.1%
